Active and inactive are the calls of the source. The calls are words filed in the database; no cut-off is given here.
Assays:
[1] = Toxicity in tobacco leaf explant co-cultured with Agrobacterium tumefaciens A348 assessed as mortality at 2 mM within 3 to 4 days; details: nicotiana tabacum, 2000 µM
[2] = system: Agrobacterium tumefaciens; assay: Inhibition of virH gene expression in Agrobacterium tumefaciens A348 overexpressing pSM219 virH::lacZ assessed as beta-galactosidase activity at 100 uM after 18 hrs; assay type: functional, organism-based
[3] = system: Agrobacterium tumefaciens; assay: Induction of virH gene expression in Agrobacterium tumefaciens A348 overexpressing pSM219 virH::lacZ assessed as beta-galactosidase activity at 10 mM after 18 hrs relative to acetosyringone; assay type: functional, organism-based
[4] = system: Nicotiana tabacum; assay: Increase in transformation frequency of tobacco leaf explant co-cultured with Agrobacterium tumefaciens A348 assessed as explant survival at 100 uM after 21 days; assay type: functional
[5] = system: Nicotiana tabacum; assay: Increase in transformation frequency of tobacco leaf explant co-cultured with Agrobacterium tumefaciens A348 assessed as transgenic callus formation at 100 uM after 21 days; assay type: functional
[6] = system: Nicotiana tabacum; assay: Increase in genetic transformation in tobacco leaf explant co-cultured with Agrobacterium tumefaciens A348 assessed as callus formation at 100 uM after 4 weeks; assay type: functional
[7] = Toxicity in tobacco leaf explant co-cultured with Agrobacterium tumefaciens A348 assessed as detrimental genetic transformation at 500 uM after 4 weeks; details: nicotiana tabacum, 672 h
[8] = system: Nicotiana tabacum; assay: Increase in genetic transformation in tobacco leaf explant co-cultured with Agrobacterium tumefaciens A348 assessed as buds formation at 100 uM after 4 weeks; assay type: functional
[9] = system: Agrobacterium tumefaciens; assay: Induction of virH gene expression in Agrobacterium tumefaciens A348 overexpressing pSM219 virH::lacZ assessed as beta-galactosidase activity at 0.5 mM after 18 hrs relative to acetosyringone; assay type: functional
[10] = system: Agrobacterium tumefaciens; assay: Induction of virH gene expression in Agrobacterium tumefaciens A348 overexpressing pSM219 virH::lacZ assessed as beta-galactosidase activity at 1 mM after 18 hrs relative to acetosyringone; assay type: functional
[11] = system: Agrobacterium tumefaciens; assay: Induction of virH gene expression in Agrobacterium tumefaciens A348 overexpressing pSM219 virH::lacZ assessed as beta-galactosidase activity at 100 uM after 18 hrs; assay type: functional, organism-based
[12] = system: Agrobacterium tumefaciens; assay: Toxicity in Agrobacterium tumefaciens A348 overexpressing pSM219 virH::lacZ assessed as […] at 5 mM after 18 hrs; assay type: organism-based; details: in vivo, 5000 µM
[13] = system: Agrobacterium tumefaciens; assay: Decrease in virH gene expression in Agrobacterium tumefaciens A348 overexpressing pSM219 virH::lacZ assessed as beta-galactosidase activity at >=250 uM after 18 hrs; assay type: functional, organism-based
[14] = Toxicity in tobacco leaf explant co-cultured with Agrobacterium tumefaciens A348 assessed as mortality at 500 uM after 7 days; details: nicotiana tabacum, 168 h

Row | SMILES | Activity [2] | Activity [4] | Activity [5] | Activity [6] | Activity [8] | other results
1 | COc1cc(C(C)=O)cc(OC)c1O[C@@H]1O[C@H](CO)[C@@H](O)[C@H](O)[C@H]1O [GLUCOACETOSYRINGONE] | Active | Active | Active | Active | Active | Activity [1]: Non-toxic; Activity [3]: Active; Activity [7]: Non-toxic
2 | COc1cc(C(C)=O)cc(OC)c1O[C@@H]1OC[C@@H](O)[C@H](O)[C@H]1O | Active | Active | Active | Active | Active | Activity [9]: 25%; Activity [10]: 50%
3 | COc1cc(C(C)=O)ccc1O[C@@H]1OC[C@@H](O)[C@H](O)[C@H]1O | Active |  |  |  |  | 
4 | COc1cc(/C=C/C(C)=O)cc(OC)c1O[C@@H]1O[C@H](CO)[C@@H](O)[C@H](O)[C@H]1O | Active |  |  | Active | Active | 
5 | CC(=O)c1ccc(O[C@@H]2OC[C@@H](O)[C@H](O)[C@H]2O)cc1 | Active |  |  |  |  | 
6 | COc1cc(/C=C/C(C)=O)cc(OC)c1O |  |  |  | Active | Active | Activity [11]: Active
7 | COc1cc(C(C)=O)cc(OC)c1O [ACETOSYRINGONE] |  | Active | Active | Active | Active | Activity [11]: Active; Activity [1]: Toxic; Activity [12]: Toxic; Activity [13]: Active; Activity [7]: Toxic; Activity [14]: Toxic
8 | COc1cc(C(=O)/C=C/c2ccc(O)cc2)cc(OC)c1O[C@@H]1O[C@H](CO)[C@@H](O)[C@H](O)[C@H]1O |  |  |  | Active | Active | 
9 | COc1cc(C(=O)/C=C/c2ccc(O)cc2)cc(OC)c1O |  |  |  | Active | Active | 
10 | COc1cc(C(C)=O)cc(OC)c1O[C@H]1O[C@H](CO)[C@@H](O)[C@H](O)[C@H]1O | Active | Active | Active | Active | Active | Activity [9]: 25%

Source: ChEMBL document CHEMBL1146493, “Effect of phenolic glycosides on Agrobacterium tumefaciens virH gene induction and plant transformation” (J Nat Prod, 2004)
